Test results published in ChEMBL document CHEMBL1136585, “Inhibition of inosine monophosphate dehydrogenase (IMPDH) by 2-[2-(Z)-fluorovinyl]inosine 5'-monophosphate” (Bioorg Med Chem Lett, 2003).

What was measured:
[1] = test system: Inosine-5'-monophosphate dehydrogenase (Escherichia coli); experiment: Inhibition of IMPDH (Inosine 5''-monophosphate dehydrogenase)from Escherichia coli B3 cells
[2] = biological target: Inosine-5'-monophosphate dehydrogenase (Escherichia coli); experiment: as above; remark: listed apart in the source

Row | Compound | K inact [1] | Ki [2]
1 | O=P(O)(O)OC[C@H]1OC(n2cnc3c(O)nc(/C=C/F)nc32)[C@H](O)C1O (single isomer, unassigned) | 0.0269 s⁻¹ | 1.11 µM
2 | O=P(O)(O)OC[C@H]1O[C@@H](n2cnc3c(Cl)ncnc32)[C@H](O)[C@@H]1O |  | 62 µM
